Experimental data as given in patent US20170348369A1, “Plant Extract and Its Therapeutic Use” (Viridis Pharmaceutical Limited, priority 2008, published 2017).

Target: T1, purified human DNA topoisomerase IIα (Homo sapiens, UniProt P11388)
T1 construct: purchased TopoGEN
Experiment: Inhibition of topoisomerase II activity (TopoGEN Topoisomerase II Drug Screening Kit)
Type: biochemical
Details: cell-free; FIG. 13; 0.3, 3, 30 μg/ml
Protocol: With the liquid extract ViP-E_Matr'08_1102, prepared according to example 7, the liquid extract ViP-E_Matr08_1106, prepared according to example 8, or the liquid extract ViP-E_Matr'08_1105, prepared according to example 9, […] As positive control etoposide was carried along.
The inhibition of topoisomerase II was determined using purified human DNA topoisomerase Ilα and the “Topoisomerase II Drug Screening Kit” from TopoGEN. Thereby it was proceeded according to the manufacturer's protocol. The DNA was separated by electrophoresis on an agarose gel and visualized under UV light after staining with ethidium bromide. With this approach the relaxed DNA (topoisomers) generated by topoisomerase II could be detected and clearly separated from the supercoiled DNA substrate.

T1 sequence (P11388 whole entry): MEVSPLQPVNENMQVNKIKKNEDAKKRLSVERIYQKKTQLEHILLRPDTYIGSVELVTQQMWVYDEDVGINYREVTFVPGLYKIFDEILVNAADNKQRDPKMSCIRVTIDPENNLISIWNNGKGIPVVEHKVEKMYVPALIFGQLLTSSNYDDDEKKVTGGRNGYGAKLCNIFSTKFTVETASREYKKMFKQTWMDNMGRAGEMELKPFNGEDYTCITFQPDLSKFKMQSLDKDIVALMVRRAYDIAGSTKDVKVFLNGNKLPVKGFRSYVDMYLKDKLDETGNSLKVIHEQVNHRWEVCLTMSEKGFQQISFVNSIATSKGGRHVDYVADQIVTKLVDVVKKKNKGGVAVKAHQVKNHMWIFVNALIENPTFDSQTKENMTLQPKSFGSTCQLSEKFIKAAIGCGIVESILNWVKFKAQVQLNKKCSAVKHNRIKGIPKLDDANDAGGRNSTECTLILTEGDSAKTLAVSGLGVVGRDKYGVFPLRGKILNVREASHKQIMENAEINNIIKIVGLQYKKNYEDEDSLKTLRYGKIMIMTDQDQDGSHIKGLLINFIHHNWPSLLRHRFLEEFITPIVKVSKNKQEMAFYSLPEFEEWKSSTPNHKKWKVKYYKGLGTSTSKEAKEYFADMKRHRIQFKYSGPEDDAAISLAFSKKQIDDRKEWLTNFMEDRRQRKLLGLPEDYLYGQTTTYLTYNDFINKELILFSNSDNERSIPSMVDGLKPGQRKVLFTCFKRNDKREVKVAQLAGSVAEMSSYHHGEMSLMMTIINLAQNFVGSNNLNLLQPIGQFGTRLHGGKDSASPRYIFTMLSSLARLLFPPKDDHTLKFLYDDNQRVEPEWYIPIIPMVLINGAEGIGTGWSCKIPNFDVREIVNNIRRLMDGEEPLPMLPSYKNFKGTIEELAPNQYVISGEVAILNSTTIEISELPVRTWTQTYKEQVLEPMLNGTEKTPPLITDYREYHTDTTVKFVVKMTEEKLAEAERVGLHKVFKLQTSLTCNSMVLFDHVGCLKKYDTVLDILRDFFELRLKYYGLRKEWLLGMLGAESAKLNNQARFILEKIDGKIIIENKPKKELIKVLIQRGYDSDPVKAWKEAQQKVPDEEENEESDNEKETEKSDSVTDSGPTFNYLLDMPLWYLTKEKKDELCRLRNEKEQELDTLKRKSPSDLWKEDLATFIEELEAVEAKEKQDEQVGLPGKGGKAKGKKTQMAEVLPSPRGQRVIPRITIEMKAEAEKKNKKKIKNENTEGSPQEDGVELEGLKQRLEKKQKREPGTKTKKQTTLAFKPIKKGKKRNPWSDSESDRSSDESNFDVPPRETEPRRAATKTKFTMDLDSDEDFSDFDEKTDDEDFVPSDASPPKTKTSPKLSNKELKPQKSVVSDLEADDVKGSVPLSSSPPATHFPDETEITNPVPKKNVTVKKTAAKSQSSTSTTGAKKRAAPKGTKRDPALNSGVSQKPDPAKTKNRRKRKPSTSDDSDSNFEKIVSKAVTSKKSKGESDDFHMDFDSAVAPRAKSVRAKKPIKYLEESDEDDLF

## α-Bisabolol
  inhibition of topoisomerase II activity: did not influence the topoisomerase II activity in all tested concentrations
